Measured values as given in PubChem BioAssay AID256 (DTP/NCI, 2004).
Values joined by “and” are separate entries in the source; they are usually repeats but may differ in a detail not shown here. Identical values can stand only once. Toxic doses and inconclusive results are not listed. The calls were made as follows: active = survival T/C of 150% or more; inactive = T/C below 125% in these data.

Tested on: CD2F1 mice, L1210 leukemia ip, survival T/C
Test: NCI In Vivo Anticancer Drug Screen. Data for tumor model L1210 Leukemia (intraperitoneal) in CD2F1 (CDF1) mice
Conditions: higher = longer survival
In short: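 Compound-dosed mice with transplantable tumor versus matched vehicle controls; endpoint ratio T/C reported.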

[1] = endpoint: mean survival time, dose: 100.0 mg/kg/injection, schedule: Q01DX001 (ip), vehicle: saline
[2] = endpoint: mean survival time, dose: 100.0 mg/kg/injection, schedule: Q01DX009 (ip), vehicle: saline with Tween-80
[3] = endpoint: mean survival time, dose: 100.0 mg/kg/injection, schedule: Q04DX003 (ip), vehicle: saline with Tween-80
[4] = endpoint: mean survival time, dose: 200.0 mg/kg/injection, schedule: Q01DX009 (ip), vehicle: saline with Tween-80
[5] = endpoint: mean survival time, dose: 200.0 mg/kg/injection, schedule: Q04DX003 (ip), vehicle: saline with Tween-80
[6] = endpoint: mean survival time, dose: 400.0 mg/kg/injection, schedule: Q01DX009 (ip), vehicle: saline with Tween-80
[7] = endpoint: mean survival time, dose: 400.0 mg/kg/injection, schedule: Q04DX003 (ip), vehicle: saline with Tween-80
[8] = endpoint: mean survival time, dose: 100.0 mg/kg/injection, schedule: Q01DX001 (ip), vehicle: saline with Tween-80
[9] = endpoint: mean survival time, dose: 50.0 mg/kg/injection, schedule: Q01DX001 (ip), vehicle: saline with Tween-80

Measured: T/C

CCS(=O)(=O)c1c(C(N)=O)ncn1C1OC(CO)C(O)C1O (stereo not given)
inactive: endpoint: median survival time, dose: 9.13 mg/kg/injection, schedule: Q01DX005 (ip), vehicle: saline 91 % of control | endpoint: median survival time, dose: 18.25 mg/kg/injection, schedule: Q01DX005 (ip), vehicle: saline 102 % of control | endpoint: median survival time, dose: 36.5 mg/kg/injection, schedule: Q01DX005 (ip), vehicle: saline 102 % of control | endpoint: median survival time, dose: 73.0 mg/kg/injection, schedule: Q01DX005 (ip), vehicle: saline 102 % of control | endpoint: median survival time, dose: 146.0 mg/kg/injection, schedule: Q01DX005 (ip), vehicle: saline 100 % of control

OCc1cc2ccccc2cc1Br
inactive: endpoint: mean survival time, dose: 50.0 mg/kg/injection, schedule: Q01DX001 (ip), vehicle: saline 89 % of control | [1] 93 % of control | endpoint: mean survival time, dose: 200.0 mg/kg/injection, schedule: Q01DX001 (ip), vehicle: saline 95 % of control | endpoint: mean survival time, dose: 400.0 mg/kg/injection, schedule: Q01DX001 (ip), vehicle: saline 100 % of control

O=C(N/N=C/c1ccccc1)c1ccc(Cl)cc1
inactive: endpoint: mean survival time, dose: 100.0 mg/kg/injection, schedule: Q01DX009 (ip), vehicle: Klucel (hydroxypropylcellulose) (HPC) 94 % of control | endpoint: mean survival time, dose: 200.0 mg/kg/injection, schedule: Q01DX009 (ip), vehicle: Klucel (hydroxypropylcellulose) (HPC) 97 % of control | endpoint: mean survival time, dose: 400.0 mg/kg/injection, schedule: Q01DX009 (ip), vehicle: Klucel (hydroxypropylcellulose) (HPC) 101 % of control

Cc1cc[n+]([O-])c(N(C(=O)c2ccccc2)C(=O)c2ccccc2)c1
inactive: [2] 98 % of control | [3] 95 % of control | [4] 102 % of control | [5] 103 % of control | [6] 107 % of control | [7] 97 % of control

COc1nccnc1NS(=O)(=O)c1ccc(N)cc1
inactive: endpoint: mean survival time, dose: 100.0 mg/kg/injection, schedule: Q04DX003 (ip), vehicle: saline 98 % of control | endpoint: mean survival time, dose: 200.0 mg/kg/injection, schedule: Q04DX003 (ip), vehicle: saline 100 % of control | endpoint: mean survival time, dose: 400.0 mg/kg/injection, schedule: Q04DX003 (ip), vehicle: saline 104 % of control

Cc1ccc(NC(=S)Nc2ccc(C)cc2)cc1
inactive: [2] 89 % of control | [4] 91 % of control | [6] 93 % of control

CCOc1ccc(NC(=O)OCC(C)C)cc1
inactive: [8] 97 % of control | endpoint: mean survival time, dose: 200.0 mg/kg/injection, schedule: Q01DX001 (ip), vehicle: saline with Tween-80 101 % of control | endpoint: mean survival time, dose: 400.0 mg/kg/injection, schedule: Q01DX001 (ip), vehicle: saline with Tween-80 89 % of control

O=C(O)/C=N/NS(=O)(=O)c1ccc(Cl)cc1
active: endpoint: mean survival time, dose: 200.0 mg/kg/injection, schedule: Q04DX003 (ip), vehicle: other 174 % of control
inactive: endpoint: mean survival time, dose: 12.5 mg/kg/injection, schedule: Q04DX003 (ip), vehicle: other 97 % of control | endpoint: mean survival time, dose: 25.0 mg/kg/injection, schedule: Q04DX003 (ip), vehicle: other 105 % of control | endpoint: mean survival time, dose: 50.0 mg/kg/injection, schedule: Q04DX003 (ip), vehicle: other 118 % of control and 122 % of control

O=C(Sc1cn(C2CC(O)C(CO)O2)c(=O)[nH]c1=O)c1ccc(N(CCCl)CCCl)cc1 (stereo not given)
inactive: endpoint: mean survival time, dose: 12.5 mg/kg/injection, schedule: Q01DX005 (ip), vehicle: water 117 % of control | endpoint: mean survival time, dose: 25.0 mg/kg/injection, schedule: Q01DX005 (ip), vehicle: water 115 % of control | endpoint: mean survival time, dose: 50.0 mg/kg/injection, schedule: Q01DX005 (ip), vehicle: water 124 % of control | endpoint: mean survival time, dose: 66.0 mg/kg/injection, schedule: Q01DX005 (ip), vehicle: water 119 % of control | endpoint: mean survival time, dose: 100.0 mg/kg/injection, schedule: Q01DX005 (ip), vehicle: water 119 % of control | endpoint: mean survival time, dose: 200.0 mg/kg/injection, schedule: Q01DX005 (ip), vehicle: water 120 % of control

CC12C=C(C(=O)c3ccccc3)C(CC1)C2(C)C (stereo not given)
inactive: [2] 95 % of control | [3] 96 % of control | [4] 97 % of control | [5] 93 % of control | [6] 97 % of control | [7] 91 % of control

Nc1nc(N)c2cc(CNc3ccc(C(=O)NC(C(=O)O)C(=O)O)cc3)ccc2n1
inactive: endpoint: mean survival time, dose: 0.8 mg/kg/injection, schedule: Q01DX009 (ip), vehicle: saline 102 % of control | endpoint: mean survival time, dose: 1.6 mg/kg/injection, schedule: Q01DX009 (ip), vehicle: saline 86 % of control

C1CCC(CCC2CCCC[N-]2)[N-]C1.[I][Co][I] (stereo not given)
inactive: endpoint: mean survival time, dose: 25.0 mg/kg/injection, schedule: Q01DX001 (ip), vehicle: saline with Tween-80 95 % of control | [9] 86 % of control | [8] 123 % of control | [1] 103 % of control

CC(=O)NC1CCC(C(C)C)CC1 (stereo not given)
inactive: [9] 102 % of control
